Measurements as given in ChEMBL document CHEMBL5728306, “Spirocyclic compounds” (2021).

Molecular target: Mitogen-activated protein kinase 1 (Homo sapiens, UniProt P28482)
Experiment: ERK1 & ERK2 were then activated by the addition of F1-Substrate, ATP and metal solution and incubated for 1 h at rt. After 1 h, the reaction was terminated by the addition of […] of Termination Buffer (QuickScout Screening Assist MSA; Carna Biosciences) to the well.

Chain of Mitogen-activated protein kinase 1 (P28482 whole entry): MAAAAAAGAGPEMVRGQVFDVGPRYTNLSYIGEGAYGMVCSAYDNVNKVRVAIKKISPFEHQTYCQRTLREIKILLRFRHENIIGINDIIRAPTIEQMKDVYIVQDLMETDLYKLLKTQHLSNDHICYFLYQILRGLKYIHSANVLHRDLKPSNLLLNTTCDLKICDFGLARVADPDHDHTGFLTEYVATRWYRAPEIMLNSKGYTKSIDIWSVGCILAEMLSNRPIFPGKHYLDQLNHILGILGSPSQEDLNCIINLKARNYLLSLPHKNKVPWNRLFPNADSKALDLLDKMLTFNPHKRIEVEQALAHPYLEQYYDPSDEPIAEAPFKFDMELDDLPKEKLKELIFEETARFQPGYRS

IC50: < 50 nM
SMILES: Cc1ncc(-c2n[nH]c3ccc(N4CC[C@]5(CCN(CC(=O)N6CC=C(c7ccc(-c8ncn(C)n8)cc7)CC6)C5)C4=O)nc23)s1
